Measured values reported in US12404232B2, “Compounds and compositions for intracellular delivery of therapeutic agents” (ModernaTX, Inc., priority 2015, dated 2025).

Tested on: mice
Test: Luc expression (bioluminescence, total flux) after intravenous administration to mice
Format: in vivo
Conditions: for AUC (p/s*h): Luc total flux (Table 3D); for 6 h Lipid/MC3 G.M. Luc Expression / AUC (h*p/s): i.v. administration; for 6 h Lipid/MC3 G.M. Luc Expression: geometric mean; for AUC (h*p/s): total Luc flux (Table 3C)
Protocol: In order to monitor how effectively various nanoparticle compositions deliver therapeutic and/or prophylactics to targeted cells, different nanoparticle compositions including a particular therapeutic and/or prophylactic (for example, a modified or naturally occurring RNA such as an mRNA) are prepared and administered to rodent populations. Mice are intravenously, intramuscularly, intraarterially, or intratumorally administered a single dose including a nanoparticle composition with a formulation such as those provided in Example 3. In some instances, mice may be made to inhale doses. Dose sizes may range from 0.001 mg/kg to 10 mg/kg, where 10 mg/kg describes a dose including 10 mg of a therapeutic and/or prophylactic in a nanoparticle composition for each 1 kg of body mass of the mouse. A control composition including PBS may also be employed.
Upon administration of nanoparticle compositions to mice, dose delivery profiles, dose responses, and toxicity of particular formulations and doses thereof can be measured by enzyme-linked immunosorbent assays (ELISA), bioluminescent imaging, or other methods. For nanoparticle compositions including mRNA, time courses of protein expression can also be evaluated. Samples collected from the rodents for evaluation may include blood, sera, and tissue (for example, muscle tissue from the site of an intramuscular injection and internal tissue); sample collection may involve sacrifice of the animals.
The efficacy of the nanoparticle compositions presented in Table 1A was evaluated with a bioluminescence study. Formulations were administered intravenously to mice (n=6) at a dosage of 0.5 mg/kg (mpk) and bioluminescence measured at 3, 6, and 24 hour time points. The standard MC3 formulation and, in some instances, a control (e.g., a PBS control) were evaluated for comparison. […] In general, flux decreased as time progressed to less than 10% of the initial flux.
The total flux (measured by area under the curve, AUC) induced by administration of a formulation including a given lipid relative to that induced by administration of a formulation including MC3 was also measured for several lipids.
The tolerability and efficacy of nanoparticle compositions to non-human primates was also investigated using sample formulations including Compounds 18, 25, 26, and 48 and MC3 to determine if these compounds are differentiated in terms of protein expression. The formulations were prepared according to the standard MC3 formulation described above and included an hEPO mRNA. Table 30 includes details of the compositions tested, while Table 31 summarizes the relative expression of Luc and hEPO mRNA in mice and rats. Expression was measured 6 hours after administration.

Compound	AUC (p/s*h)	6 h Lipid/MC3 G.M. Luc Expression	AUC (h*p/s)
CCCCCCCCCOC(=O)CCCCCCCN(CCO)CCN(CCO)CCCCCCCC(=O)OC(CCCCCCCC)CCCCCCCC [Compound 159, Heptadecan-9-yl 8-((2-hydroxyethyl)(2-((2-hydroxyethyl)(8-(nonyloxy)-8-oxooctyl)amino)ethyl)amino)octanoate]	1.355E+008		
CCCCCCCCC(CCCCCCCC)OC(=O)CCCCCCCN(CCO)CCCCCCCC(=O)OC(C)(C)C [Compound 155, tert-Butyl 8-((8-(heptadecan-9-yloxy)-8-oxooctyl)(2-hydroxyethyl)amino)octanoate]	1.266E+011		
CCCCCCCCCOC(=O)CCCCCCCN(CCCCCCCC(=O)OC(CCCCCCCC)CCCCCCCC)CCN1CCN(C)CC1 [Compound 101, Heptadecan-9-yl 8-((2-(4-methylpiperazin-1-yl)ethyl)(8-(nonyloxy)-8-oxooctyl)amino)octanoate]		0.011	1.8E+09
CCCCCCCCC(CCCCCCCC)OC(=O)CCCCCCCN(CCO)CCCCCCCC(=O)N(C)CCCCCCCC [Compound 145, Heptadecan-9-yl 8-((2-hydroxyethyl)(8-(methyl(octyl)amino)-8-oxooctyl)amino)octanoate]		0.979	8.1E+10
CCCCCCCCCOC(=O)CCCCCCCN(CCO)CCCCCCC/C=C\C(CCCCCCCC)CCCCCCCC [Compound 152, Nonyl (Z)-8-((2-hydroxyethyl)(10-octyloctadec-8-en-1-yl)amino)octanoate]	2.855E+010		
CCCCCCCCCOC(=O)CCCCCCCN(CCO)CCCCCCCCCC(CCCCCCCC)CCCCCCCC [Compound 153, Nonyl 8-((2-hydroxyethyl)(10-octyloctadecyl)amino)octanoate]	2.697E+011		
CCCCCCCCCOC(=O)CCCCCCCN(CCO)CCCCCCCC(=O)OC(C)(C)C [Compound 158, tert-Butyl 8-((2-hydroxyethyl)(8-(nonyloxy)-8-oxooctyl)amino)octanoate]	1.211E+007		
CCCCCCCCCC(=O)OCCCCCCCN(CCO)CCCCCCCOC(=O)C(CCCCCCCC)CCCCCCCC [Compound 151, 7-((7-(Decanoyloxy)heptyl)(2-hydroxyethyl)amino)heptyl 2-octyldecanoate]	7.010E+011		
CCCCCCCCC(CCCCCC)C(=O)OCCCCCCCCCN(CCO)CCCCCCCCCOC(=O)C(CCCCCC)CCCCCCCC (stereo not drawn) [Compound 133, ((2-Hydroxyethyl)azanediyl)bis(nonane-9,1-diyl)bis(2-hexyldecanoate)]		4.18	3.62E+11
CCCCCCCCC(CCCCCCCC)OC(=O)CCCCCCCN(CCO)CCCCCCCC(=O)OCC(CCCCCCC)OC (stereo not drawn) [Compound 148, Heptadecan-9-yl 8-((2-hydroxyethyl)(8-((2-methoxynonyl)oxy)-8-oxooctyl)amino)octanoate]	4.965E+011		
CCCCCCCCCOC(=O)CCCCCCCN(CCCCCCCC(=O)OC(CCCCCCCC)CCCCCCCC)CCN1CCOCC1 [Compound 103, Heptadecan-9-yl 8-((2-morpholinoethyl)(8-(nonyloxy)-8-oxooctyl)amino)octanoate]		0.171	2.4E+10
CCCCCCCCCOC(=O)CCCCCCCN(CCCCCCCC(=O)OC(CCCCCCCC)CCCCCCCC)CCOCCO [Compound 154, Heptadecan-9-yl 8-((2-(2-hydroxyethoxy)ethyl)(8-(nonyloxy)-8-oxooctyl)amino)octanoate]	5.560E+010		
CCCCCCCCCC(=O)OCCCCCCCN(CCO)CCCCCCCC(=O)OC(CCCCCCCC)CCCCCCCC [Compound 96, 7-((8-(Heptadecan-9-yloxy)-8-oxooctyl)(2-hydroxyethyl)amino)heptyl decanoate]	1.209E+012		
CCCCCCCCCOC(=O)CCCCCCCN(CCO)CCCCCCCCCC(=O)OC(CCCCCC)CCCCCC [Compound 147, Tridecan-7-yl 10-((2-hydroxyethyl)(8-(nonyloxy)-8-oxooctyl)amino)decanoate]		8.13	5.63E+11
CCCCCCCCC(CCCCCCCC)OC(=O)CCCCCCCN(C)CCCCCCCCCC(=O)OCCCCCCC [Compound 149, Heptyl 10-((8-(heptadecan-9-yloxy)-8-oxooctyl)(methyl)amino)decanoate]	1.057E+011		
CCCCCCCCC(CCCCCCCC)OC(=O)CCCCCCCN(CCO)CCCCCCCC(=O)OC1CCC(CCCCC)CC1 (stereo not drawn) [Compound 66, Heptadecan-9-yl 8-((2-hydroxyethyl)(8-oxo-8-((4-pentylcyclohexyl)oxy)octyl)amino)octanoate]		5.23	6.76E+11
CCCCCCCCC(CCCCCCCC)OC(=O)CCCCCCCN(CCO)CCCCCC(=O)N(C)CCCCCCCC [Compound 146, Heptadecan-9-yl 8-((2-hydroxyethyl)(6-(methyl(octyl)amino)-6-oxohexyl)amino)octanoate]		0.012	1.04E+09
CCCCCCCCC(CCCCCCCC)OC(=O)CCCCCCCN(C)CCCCCCCCCCCC(=O)OCCCCC [Compound 150, Pentyl 12-((8-(heptadecan-9-yloxy)-8-oxooctyl)(methyl)amino)dodecanoate]	2.704E+011		
CCCCCCCCCOC(=O)CCCCCCCN(CCO)CCCCCCCCCOC(=O)C(CCCCCC)CCCCCCCC (stereo not drawn) [Compound 134, 9-((2-Hydroxyethyl)(8-(nonyloxy)-8-oxooctyl)amino)nonyl 2-hexyldecanoate]		3.27	3.43E+11
CCCCCCCCCOC(=O)CCCCCCCN(CCO)CCCCCCCOP(=O)(OCCCCCCCC)OCCCCCCCC [Compound 131, Nonyl 8-((7-((bis(octyloxy)phosphoryl)oxy)heptyl)(2-hydroxyethyl)amino)octanoate]		1.27	9.29E+10
CCCCCCCCC(C)OC(=O)CCCCCCCN(CCO)CCCCCCCOC(=O)C(CCCCCCCC)CCCCCCCC (stereo not drawn) [Compound 135, 7-((8-(Decan-2-yloxy)-8-oxooctyl)(2-hydroxyethyl)amino)heptyl 2-octyldecanoate]		10.5	1.25E+12
CCCCCCCCOP(=O)(OCCCCCCCC)OCCCCCCCN(CCO)CCCCCCCC(=O)OC(C)CCCCCCCC (stereo not drawn) [Compound 132, Decan-2-yl 8-((7-((bis(octyloxy)phosphoryl)oxy)heptyl)(2-hydroxyethyl)amino)octanoate]		0.112	1.75E+10
